Measured values: the supplement of paper PMC10307832

Tests used:
Assay in all cases: relative viability (nuclei count vs DMSO), 5 days (fraction); higher = more cells survive
[1] = compound: C1CC(C1)(C(=O)O)C(=O)O.[NH2-].[NH2-].[Pt+2] [Carboplatin] + CC(=O)c1c(C)c2cnc(Nc3ccc(N4CCNCC4)cn3)nc2n(C2CCCC2)c1=O [Palbociclib] (partner 0.5 µM)
Summary of the method: (§1)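 Lung cancer cell lines, seeded in 1536-well plates, were treated the following day by pin tool with a single drug or with five library-drug doses (not always all listed) in √10 steps on top of a fixed anchor-drug dose. Cells were fixed and nuclei stained in one step after 5 days, and nuclei were counted. Relative viability is the nuclei count for treated wells divided by that for vehicle wells, reported as medians of duplicate plates.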

GSK126 + Linsitinib = compound: CC[C@H](C)N1C=C(C2=C(C=C(C=C21)C3=CN=C(C=C3)N4CCNCC4)C(=O)NCC5=C(C=C(NC5=O)C)C)C [GSK126] + C[C@]1(O)C[C@@H](c2nc(-c3ccc4ccc(-c5ccccc5)nc4c3)c3c(N)nccn32)C1 [Linsitinib] (partner 1 µM)
Summary of the method: as §1

Carboplatin + Bortezomib = compound: C1CC(C1)(C(=O)O)C(=O)O.[NH2-].[NH2-].[Pt+2] [Carboplatin] + CC(C)C[C@H](NC(=O)[C@H](Cc1ccccc1)NC(=O)c1cnccn1)B(O)O [Bortezomib] (partner 0.002 µM)
Summary of the method: as §1

MLN4924 + OSI-027 = compound: NS(=O)(=O)OC[C@@H]1C[C@@H](n2ccc3c(N[C@H]4CCc5ccccc54)ncnc32)C[C@@H]1O [MLN4924] + COc1cccc2cc(-c3nc([C@H]4CC[C@H](C(=O)O)CC4)n4ncnc(N)c34)[nH]c12 [OSI-027] (partner 0.5 µM)
Summary of the method: as §1

| Cell Line | relative viability ([1]; first compound 0.08 µM) | relative viability ([1]; first compound 0.253 µM) | relative viability ([1]; first compound 0.8 µM) | relative viability ([1]; first compound 2.53 µM) | relative viability ([1]; first compound 8 µM) | relative viability (GSK126 + Linsitinib; first compound 0.08 µM) | relative viability (GSK126 + Linsitinib; first compound 0.253 µM) | relative viability (GSK126 + Linsitinib; first compound 0.8 µM) | relative viability (GSK126 + Linsitinib; first compound 2.53 µM) | relative viability (GSK126 + Linsitinib; first compound 8 µM) | relative viability (Carboplatin + Bortezomib; first compound 0.08 µM) | relative viability (Carboplatin + Bortezomib; first compound 0.253 µM) | relative viability (Carboplatin + Bortezomib; first compound 0.8 µM) | relative viability (Carboplatin + Bortezomib; first compound 2.53 µM) | relative viability (Carboplatin + Bortezomib; first compound 8 µM) | relative viability (MLN4924 + OSI-027; first compound 0.04 µM) | relative viability (MLN4924 + OSI-027; first compound 0.1265 µM) | relative viability (MLN4924 + OSI-027; first compound 0.4 µM) | relative viability (MLN4924 + OSI-027; first compound 1.265 µM) | relative viability (MLN4924 + OSI-027; first compound 4 µM) |
| --- | --- | --- | --- | --- | --- | --- | --- | --- | --- | --- | --- | --- | --- | --- | --- | --- | --- | --- | --- | --- |
| LC-2-ad | 0.503 | 0.561 | 0.419 | 0.466 | 0.47 | 0.874 | 0.905 | 0.849 | 0.899 | 0.839 | 1.09 | 1.1 | 1.11 | 0.985 | 0.831 | 0.952 | 0.727 | 0.439 | 0.224 | 0.262 |
| LCLC-97TM1 | 0.206 | 0.211 | 0.257 | 0.211 | 0.206 | 0.164 | – | 0.179 | 0.225 | 0.204 | 0.723 | 0.62 | 1.25 | 0.844 | 0.375 | 0.601 | 0.247 | 0.239 | 0.131 | 0.116 |
| LCLC-103H | 0.538 | 0.469 | 0.543 | 0.431 | 0.444 | 1.13 | 1.16 | 1.06 | 1.07 | 1.08 | 1.13 | 1.33 | 1.06 | 1.24 | 1 | 0.467 | 0.491 | 0.539 | 0.178 | 0.156 |
| LOU-NH91 | 0.539 | 0.455 | 0.44 | 0.507 | 0.515 | 0.975 | 0.884 | 0.924 | 0.977 | 0.973 | 0.581 | 0.52 | 0.54 | 0.472 | 0.495 | 0.754 | 0.857 | 0.609 | 0.411 | 0.385 |
| LU99A | 0.468 | 0.392 | 0.39 | 0.424 | 0.314 | 0.52 | 0.513 | 0.605 | 0.503 | 0.652 | 1.01 | 1.23 | 1.04 | 0.968 | 0.757 | 0.293 | 0.315 | 0.247 | 0.196 | 0.222 |
| LXF-289 | 0.629 | 0.59 | 0.635 | 0.563 | 0.583 | 1.02 | 1 | 0.995 | 0.915 | 1 | 1.03 | 0.986 | 0.98 | 1.01 | 0.919 | 0.833 | 0.713 | 0.569 | 0.165 | 0.13 |
| NCI-H23 | 0.453 | 0.513 | 0.513 | 0.461 | 0.419 | 0.63 | 0.528 | 0.442 | 0.592 | 0.725 | 1.1 | 1.11 | 1.08 | 0.861 | 0.784 | 0.514 | 0.497 | 0.244 | 0.136 | 0.177 |
| NCI-H322M | 0.496 | 0.476 | 0.472 | 0.45 | 0.507 | 0.953 | 0.949 | 0.884 | 1.01 | 0.937 | 1.26 | 1.23 | 1.2 | 1.22 | 1.14 | 0.622 | 0.588 | 0.339 | 0.272 | 0.329 |
| NCI-H441 | 0.282 | 0.226 | 0.212 | 0.211 | 0.231 | 0.684 | 0.583 | 0.599 | 0.578 | 0.651 | 0.239 | 0.777 | 0.618 | 0.459 | 0.364 | 0.596 | 0.613 | 0.258 | 0.139 | 0.193 |
| NCI-H460 | 0.232 | 0.147 | 0.127 | 0.0559 | 0.052 | 0.76 | 0.784 | 0.787 | 0.798 | 0.969 | 1.22 | 1.06 | 0.895 | 0.812 | 0.174 | 0.739 | 0.781 | 0.893 | 0.0922 | 0.0324 |
| NCI-H520 | 0.26 | 0.2 | 0.201 | 0.223 | 0.228 | 1.12 | 1.03 | 0.915 | 1.07 | 1.11 | 0.611 | 0.609 | 0.767 | 0.599 | 0.523 | 0.294 | 0.295 | 0.363 | 0.202 | 0.191 |
| NCI-H647 | 0.433 | 0.542 | 0.388 | 0.229 | 0.37 | 1.47 | 1.28 | 1.17 | 1.07 | 1.08 | 1.03 | 1.24 | 0.952 | 1.07 | 0.686 | 0.598 | 0.472 | 0.475 | 0.0477 | 0.0384 |
| NCI-H650 | 0.318 | 0.337 | 0.332 | 0.276 | 0.232 | 1.11 | 0.789 | 0.934 | 0.974 | 1.13 | 0.966 | 0.852 | 0.868 | 0.764 | 0.388 | 0.344 | 0.415 | 0.235 | 0.162 | 0.187 |
| NCI-H661 | 0.385 | 0.428 | 0.399 | 0.416 | 0.374 | 0.531 | 0.561 | 0.519 | 0.719 | 0.497 | 0.915 | 0.856 | 0.716 | 0.613 | 0.763 | 0.751 | 0.876 | 0.689 | 0.319 | 0.349 |
| NCI-H727 | 0.732 | 0.668 | 0.726 | 0.573 | 0.591 | 0.218 | 0.388 | 0.26 | 0.319 | 0.364 | 1.08 | 1.01 | 0.88 | 0.774 | 0.471 | 0.521 | 0.47 | 0.559 | 0.389 | 0.441 |
| NCI-H838 | 0.213 | 0.238 | 0.212 | 0.224 | 0.261 | 1.12 | 0.979 | 0.952 | 0.906 | 0.866 | 1.06 | 0.858 | 0.869 | 0.835 | 0.82 | 0.364 | 0.241 | 0.224 | 0.154 | 0.166 |
